This is an account of results in US20090269281A1, “Calcium/Calmodulin-Dependent Protein Kinase Kinase as a Control Point for Cardiac Hypertrophy” (University of North Texas Health Science Center at Fort …, priority 2007, published 2009).

For one assay, the system named is UIIR. The assay is described as follows: UIIR expression in cardiomyocytes treated with hypertrophic agonists (RT-PCR, western blot). Format: cell-based, rat. The note with it: for UIIR mRNA expression: 10 μM PE or 100 nM AngII for 24 hours, RT-PCR; for UIIR protein expression: PE or AngII, western blot. In general terms: A western blot detects proteins with antibodies after separation by electrophoresis.

In assay [1] the test system is ANF, SkA and MEF2 reporters. The assay is described as follows: UII-stimulated ANF, SkA and MEF2 luciferase reporter assay in cardiomyocytes. Type of assay: cell-based, rat. The note with it: AdUIIR-infected cardiomyocytes; inhibitor 1 h prior to UII 100 nM; STO-609 250 ng/mL, SB203580 10 μM, U0126 10 μM, AKTi 5 μM. The source says:
(§1) Cell Culture and Treatments. […] Plasmids and Adenoviral Constructs.
Transient Transfection and Luciferase Assay.

In assay [2] the test system is HDAC5/14-3-3β association. Put plainly: Immunoprecipitation of 14-3-3β and detection of bound HDAC5 in cardiomyocytes. The note with it: AdUIIR-infected cardiomyocytes; inhibitor 1 h prior to UII, 60 min. Format: cell-based, rat. As to the method: as §1
For immunoprecipitation studies, Cardiomyocytes were cultured in 100-mm as described in the previous section. 24 h post-plating, cells were treated with UII and various pharmacological inhibitors as indictated. Following treatment, 14-3-3β was immunoprecipitated from whole cell lysate using a commercially available antibody (Abcam) and a protein G immunoprecipitation kit (IP50 Kit, Sigma, following manufacturer's protocol). HDAC5 was detected using a commercially-available antibody (Cell Signaling Technologies, Inc.).
UII stimulation induces association of HDAC5 with 14-3-3β in a CaMKK dependent manner. The activity of MEF2 is controlled, in part, by its association with class II HDACs in the nucleus. Class II HDACs repress the activity of MEF2-sensitive promoters by local deacetylation of nucleosomal histones causing the condensation of chromatin. The repressive influence of HDACs on MEF2 can be relieved by CaMK-dependent phosphorylation of HDACs, which results in their dissociation from MEF2. The dissociation of HDACs from MEF2 is accompanied by 14-3-3-mediated nuclear export of the HDACs. We have shown that UII stimulates the activity of MEF2. Next, to determine whether UII stimulates HDAC5 association with 14-3-3β, AdUIIR-infected cardiomyocytes were treated with UII for various times up to 60 min, and 14-3-3β was pulled down from the whole cell lysate by using an antibody specific for 14-3-3β and protein G agarose. HDAC5 was detected using a specific antibody.

Assay [3] has as its system ANF, SkA and MEF2 reporters. The note with it: cardiomyocytes co-transfected with CaMKI; SB203580 10 μM or U0126 10 μM.
Experimental: Cell Culture and Treatments. Cardiomyocytes were isolated from 2-4 day old Sprague-Dawley rats using the neonatal cardiomyocyte isolation system (Worthington Biolabs) based on a previously described protocol (45). Cells were plated in medium 199 supplemented with 10% fetal bovine serum (FBS, Atlanta Biologicals) and gentamycin (Fisher). Cells were maintained in medium 199 supplemented with 1.0% FBS and gentamycin. Prior to any treatment, cardiomyocyte cultures were incubated in medium 199 containing 0.2% serum for 24 hours. […] Cells were incubated in medium 199 containing 0.2% FBS prior to stimulation with the indicated reagents for reporter assays, RT-PCR, western blotting and immunoprecipitation.
Transient Transfection and Luciferase Assay. For transfections, cardiomyocytes were cultured in 12-well tissue culture plates as described. Once cultures were incubated in medium 199 with 0.2% serum for 24 hours, cultures were either infected with AdUIIR as described or were just transfected. […] Cardiomyocyte cultures were harvested 24-72 hours post treatment (per sample) and luciferase activity was determined by luminometry (Model TD 20/20 Luminometer, Turner Designs, Sunnyvale, Calif.) using a commercially available kit (Luciferase Substrate, Promega, Madison, Wis.).
The subject of assay [4] is ANF, BNP, αMHC and SkA mRNA. Put plainly: Semi-quantitative RT-PCR of hypertrophy marker genes in cardiomyocytes. The note with it: AdUIIR-infected cardiomyocytes; UII 100 nM, STO-609 250 ng/mL, 48 h. Format: cell-based, rat. The procedure:
as §1
Reverse Transcription and Semi-quantitative PCR—Cardiomyocytes were cultured in 100-mm dishes at a density of 1×10^5 cells/cm^2. 24 h post-plating, cells were treated as indicated. Following treatment, total RNA was isolated with TRIzol® reagent (Invitrogen) cDNA was synthesized using Super-Script™III (Invitrogen) per the manufacturer's instructions. Semi-quantitative PCR was then performed using gene-specific primers for UIIR, hypertrophy marker genes and glyceraldehyde-3-phosphate dehydrogenase (GAPDH) (Integrated DNA Technologies). Sequences of gene-specific primers were as follows: for UIIR, sense 5′-[…]-3′ (SEQ ID NO: 1) and antisense 5′-[…]-3′ (SEQ ID NO: 2); for ANF, sense 5′-[…]-3′ (SEQ ID NO: 3) and antisense 5′-[…]-3′ (SEQ ID NO: 4); for BNP sense, 5′-[…]-3′ (SEQ ID NO: 5) and anti-sense 5′-[…]-3′ (SEQ ID NO: 6); for αMHC sense, 5′-[…]-3′ (SEQ ID NO: 7) and antisense 5′-[…]-3′ (SEQ ID NO: 8); for SkA sense, 5′-[…]-3′ (SEQ ID NO: 9) and antisense 5′-[…]-3′ (SEQ ID NO: 10); and for GAPDH sense, 5′-[…]-3′ (SEQ ID NO: 11) and antisense 5′-[…]-3′ (SEQ ID NO: 12).

In a further assay the test system is CaMKI. The assay is described as follows: Western blot of CaMKI phosphorylation (phospho-Thr178) in cardiomyocytes. The note with it: AdUIIR-infected cardiomyocytes; UII with STO-609 for 2 or 5 min. Type of assay: cell-based, rat. The procedure: as §1
(§2) Western Blot Analysis and Immunoprecipitations. Cardiomyocytes were cultured in 100-mm dishes as described in the previous section. 24 h post-plating, cells were treated with UII and various pharmacological inhibitors as indicated. Following treatment, cells were lysed, and the relative abundance of UIIR, active p38 and ERK1/2, and active PKD was determined with commercially-available antibodies (Alpha Diagnostic, and Cell Signaling Technologies, Inc., respectively). The antibody for CaMKI was obtained from T. Soderling (Vollum Institute, Oregon Health Sciences University, Portland Oreg.).
UII stimulation results in the activation of CaMKI. […] One of the major downstream effectors of CaMKK is CaMKI. In addition to calcium/calmodulin, CaMKI requires phosphorylation by CaMKK to be active. To determine whether UII activates CaMKI, AdUIIR-infected cardiomyocyte cultures were treated with UII for various times up to 60 min, and whole cell lysates were collected and the phosphorylation status of CaMKI was measured by Western blot analysis by using an antibody that recognizes the active form of CaMKI (phospho-Thr178). […] CaMKI remained phosphorylated and active through 60 min of UII stimulation. Thus, UII activates CaMKI in cardiomyocytes.

The test system of the next assay is p38 and ERK1/2. Put plainly: Western blot of p38 and ERK1/2 phosphorylation in cardiomyocytes. Type of assay: cell-based, rat. Conditions: AdUIIR-infected cardiomyocytes; UII with STO-609 for 5 min. The procedure:
as §1, §2
UII-dependent activation of p38 and ERK1/2 requires CaMKK. MAP kinases play an important role in mediating intracellular signaling. They are involved in cellular processes such as hypertrophy (7-10, 53, 54). More interesting, cross talk has been reported between the CaMKs and the MAPKs in neurons (11). There are three distinct families of MAP kinases (ERKs, p38s, and JNKs)(55). […] Next, whether UII stimulation of the MAP kinases was dependent on CaMKK was determined. AdUIIR-infected cardiomyocyte cultures were treated with UII for various times up to 60 min, and the phosphorylation status of p38 and ERK MAPKs were measured by Western blot analysis using antibodies that detect the active (phosphorylated) forms of these kinases.

Assay [5] concerns PKD. The assay is described as follows: Western blot of PKD phosphorylation (phospho-Ser744/748) in cardiomyocytes. Format: cell-based, rat. The note with it: AdUIIR-infected cardiomyocytes; UII with STO-609 for 2 or 5 min. The procedure:
as §1, §2
UII activates PKD in a CaMKK dependent manner. A parallel pathway involving PKD phosphorylatea HDACs resulting in their 14-3-3-dependent translocation […] (19). […] Next, it was determined whether UII stimulation could activate PKD which would account for the UII-induced HDAC5 translocation […] possibly working in conjunction with CaMKI. To determine whether UII activates PKD, AdUIIR-infected cardiomyocyte cultures were treated with UII for various times up to 60 min, and whole cell lysates were collected and the phosphorylation status of PKD was measured by Western blot analysis by using an antibody that recognizes the active form of PKD (phospho-Ser744/748). […]

The next assay relates to ERK1/2. The assay is described as follows: Western blot of AngII or Et-1 stimulated ERK1/2 phosphorylation in cardiomyocytes. The note with it: AngII 100 nM or Et-1 10 nM for 10 min; STO-609 250 ng/mL. Type of assay: cell-based, rat. The procedure:
(§3) Whole cell lysates were subjected to Western blotting to determine the relative change in phosphorylation of ERK1/2 (FIG. 7A) or PKD (FIG. 7B). Western Blot Analysis and Immunoprecipitations. […] Following treatment, cells were lysed, and the relative abundance of UIIR, active p38 and ERK1/2, and active PKD was determined with commercially-available antibodies (Alpha Diagnostic, and Cell Signaling Technologies, Inc., respectively). The antibody for CaMKI was obtained from T. Soderling (Vollum Institute, Oregon Health Sciences University, Portland Oreg.).

Assay [6] has as its system PKD. Put plainly: Western blot of AngII or Et-1 stimulated PKD phosphorylation in cardiomyocytes. Type of assay: cell-based, rat. The note with it: AngII 100 nM or Et-1 10 nM for 10 min; STO-609 250 ng/mL. The procedure:
as §3

Another assay addresses CaMKKa (Rattus norvegicus, UniProt P97756). Conditions: cited from earlier work.
The target in another assay is CaM-KI (Homo sapiens, UniProt Q14012). Conditions: cited from earlier work.
A further assay concerns the target T1, CaM-KIV (Homo sapiens, UniProt Q16566).
T1 sequence (Q16566 1-473): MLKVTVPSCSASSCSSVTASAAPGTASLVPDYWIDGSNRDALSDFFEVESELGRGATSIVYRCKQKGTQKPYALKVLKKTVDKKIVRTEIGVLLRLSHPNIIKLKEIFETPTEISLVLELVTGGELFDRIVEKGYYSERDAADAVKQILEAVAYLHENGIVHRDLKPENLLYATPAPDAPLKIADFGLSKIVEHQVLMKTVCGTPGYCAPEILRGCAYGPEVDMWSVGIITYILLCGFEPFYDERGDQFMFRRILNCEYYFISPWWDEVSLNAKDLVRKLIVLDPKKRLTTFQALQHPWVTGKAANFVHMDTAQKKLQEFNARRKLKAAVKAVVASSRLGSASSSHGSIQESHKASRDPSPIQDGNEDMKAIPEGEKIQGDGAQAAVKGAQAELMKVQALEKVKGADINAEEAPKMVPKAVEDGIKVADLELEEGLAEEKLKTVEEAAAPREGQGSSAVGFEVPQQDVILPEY
Conditions: cited from earlier work.

In the next assay the test system is PKA. Conditions: cited from earlier work.
For a further assay, the system named is PKC. The note with it: cited from earlier work.
Another assay addresses p42 MAP kinase (Homo sapiens, UniProt P28482). The note with it: cited from earlier work.

Entries after “also recorded” stand apart in the source; their conditions may differ.

CaMKKa, sequence (P97756 whole entry): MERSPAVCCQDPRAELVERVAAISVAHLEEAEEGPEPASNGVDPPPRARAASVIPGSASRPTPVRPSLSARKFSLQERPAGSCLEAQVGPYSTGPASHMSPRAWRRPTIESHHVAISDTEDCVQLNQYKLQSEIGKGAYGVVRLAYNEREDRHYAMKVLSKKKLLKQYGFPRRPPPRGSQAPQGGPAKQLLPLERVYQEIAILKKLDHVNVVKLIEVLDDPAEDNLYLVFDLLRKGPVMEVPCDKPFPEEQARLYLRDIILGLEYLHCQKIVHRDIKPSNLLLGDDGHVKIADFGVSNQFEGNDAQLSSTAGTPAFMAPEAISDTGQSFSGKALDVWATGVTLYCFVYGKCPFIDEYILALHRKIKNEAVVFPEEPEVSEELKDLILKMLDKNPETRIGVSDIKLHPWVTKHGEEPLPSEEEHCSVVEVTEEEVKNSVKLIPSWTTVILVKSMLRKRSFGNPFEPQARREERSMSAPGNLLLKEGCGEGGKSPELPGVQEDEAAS
p42 MAP kinase, sequence (P28482 whole entry): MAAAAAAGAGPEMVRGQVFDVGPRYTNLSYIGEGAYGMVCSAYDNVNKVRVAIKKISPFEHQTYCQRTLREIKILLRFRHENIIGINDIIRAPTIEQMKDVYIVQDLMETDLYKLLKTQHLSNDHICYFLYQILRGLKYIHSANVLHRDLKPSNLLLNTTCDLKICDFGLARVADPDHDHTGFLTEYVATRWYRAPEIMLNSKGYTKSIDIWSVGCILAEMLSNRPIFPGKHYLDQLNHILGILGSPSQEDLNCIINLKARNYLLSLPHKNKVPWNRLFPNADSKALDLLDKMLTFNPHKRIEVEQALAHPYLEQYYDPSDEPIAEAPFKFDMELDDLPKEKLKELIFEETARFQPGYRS
CaM-KI, sequence (Q14012 whole entry, species assumed): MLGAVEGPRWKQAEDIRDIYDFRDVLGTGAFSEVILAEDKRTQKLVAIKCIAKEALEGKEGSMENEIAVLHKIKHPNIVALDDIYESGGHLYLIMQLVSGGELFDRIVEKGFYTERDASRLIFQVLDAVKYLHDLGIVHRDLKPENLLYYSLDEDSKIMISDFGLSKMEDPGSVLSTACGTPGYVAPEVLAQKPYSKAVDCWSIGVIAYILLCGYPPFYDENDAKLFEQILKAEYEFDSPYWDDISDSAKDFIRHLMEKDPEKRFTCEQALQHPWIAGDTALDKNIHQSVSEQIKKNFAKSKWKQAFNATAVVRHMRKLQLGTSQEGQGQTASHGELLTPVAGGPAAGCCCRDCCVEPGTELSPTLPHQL
Experimental for UIIR: Cardiomyocytes were cultured in medium containing 0.2% FBS and either PE (10 μM) or AngII (100 nM) for 48 hours. Total RNA was isolated and reverse transcribed. cDNA was used as template to amplify UIIR. […] Cardiomyocytes were cultured in medium containing 0.2% FBS and either PE (10 μM) or AngII (100 nM) for 48 hours. Total protein was isolated and UIIR detected by western blot.
Expression of UIIR in myocytes treated with hypertrophic agonists. In order to validate the array data, we designed PCR primers to amplify UIIR. Cardiomyocyte cultures were treated with 10 μM PE or 100 nM AngII for 24 hours and total RNA was extracted following the Trizol protocol (Invitrogen). Total RNA was then used for template for reverse transcription. The cDNA generated from the RT reaction was then used as template to amplify UIIR and GAPDH as control.
To this end, we stimulated cardiomyocyte cultures with AngII and PE as before and isolated total protein. The total protein was resolved by PAGE (12% acrylamide), transferred to nitrocellulose, and blotted for UIIR using a specific antibody.

In the case of “angiotensin II (DRVYIHPF; Angiotensin-2; UniProt P01019 25-32, looked up) [AngII, humoral hypertrophic agonist acting on the Gq-coupled angiotensin II receptor]”, in the assay on UIIR, the “UIIR mRNA expression” value is “up-regulated the UIIR messenger RNA” and the UIIR protein expression entry was “up-regulation of UIIR”.
As for `C[S+]([O-])c1ccc(-c2nc(-c3ccncc3)c(-c3ccc(F)cc3)[nH]2)cc1` (stereo not drawn) [SB203580], the “effect of inhibitor on UII activation of ANF, SkA and MEF2 reporter luciferase activity” value in assay [1] is “completely blocked”. Further, the “effect of inhibitor on UII-induced association of HDAC5 with 14-3-3β” value (“effect of inhibitor … with 14-3-3β” below) in [2] is “no effect”. Also, the “effect of inhibitor on CaMKI activation of ANF, SkA and MEF2 reporter luciferase activity” value in assay [3] is “completely blocked”.
Turning to `O=C(O)c1ccc2c3c1cccc3c(=O)n1c3ccccc3nc21` [STO-609, 7-H-Benz[de]benzimidazo[2,1-a]isoquinoline-7-one-3-carboxylic acid], in [1], the “effect of inhibitor on UII activation of ANF, SkA and MEF2 reporter luciferase activity” value is on record as “completely blocked; also recorded: UII was incapable of stimulating any of the reporters”. In addition, the “effect of inhibitor on UII-stimulated hypertrophy marker gene mRNA expression (ANF, BNP, αMHC, SkA)” value in assay [4] is listed as “UII was unable to stimulate hypertrophy marker gene expression over control; also recorded: UII was unable to stimulate the expression of ANF, BNP, αMHC or SkA”. The “effect of inhibitor on UII-dependent activation (phosphorylation) of CaMKI” value in the assay on CaMKI is given as “UII was unable to stimulate CaMKI; also recorded: inhibited”. Further, the “effect of inhibitor on UII-dependent phosphorylation of p38 and ERK1/2” value in the assay with p38 and ERK1/2 is “UII was unable to stimulate p38 or ERK1/2”. For the same compound, the “effect of inhibitor … with 14-3-3β” value in [2] is listed as “loss of UII-induced association of HDAC5 with 14-3-3β; also recorded: decreased association of HDAC5 with 14-3-3β”. Also, in the assay with PKD [5], the “effect of inhibitor on UII-dependent phosphorylation of PKD” value was “UII was unable to stimulate PKD”. For the same compound, the “effect of inhibitor on AngII and Et-1 activation of ERK1/2” value in the assay on ERK1/2 was “CaMKK is required for AngII and Et-1 activation of ERK1/2 and PKD”. In addition, the “effect of inhibitor on AngII and Et-1 activation of PKD” value in the assay on PKD [6] was “CaMKK is required for AngII and Et-1 activation of ERK1/2 and PKD”. In addition, the IC50 was 0.382 µM on CaMKKa, greater than 31.8 µM at CaM-KI, greater than 31.8 µM on CaM-KIV and greater than 31.8 µM on p42 MAP kinase. For the same compound, the “IC50 for PKA” value in the assay on PKA was greater than 10 µg/mL. In the assay with PKC, the “IC50 for PKC” value is greater than 10 µg/mL.
For the compound `N#CC(=C(/N)Sc1ccccc1N)/C(C#N)=C(\N)Sc1ccccc1N` [U0126], in assay [1], the “effect of inhibitor on UII activation of ANF, SkA and MEF2 reporter luciferase activity” value is “completely blocked”. Moreover, the “effect of inhibitor … with 14-3-3β” value in assay [2] was “loss of UII-induced association of HDAC5 with 14-3-3β; also recorded: reduced UII-dependent association with 14-3-3β”. The “effect of inhibitor on CaMKI activation of ANF, SkA and MEF2 reporter luciferase activity” value in assay [3] is reported as “completely blocked”.
As for `CNC[C@H](O)c1cccc(O)c1` [PE, phenylephrine], in the assay on UIIR, the “UIIR mRNA expression” value was “up-regulated the UIIR messenger RNA” and the UIIR protein expression entry is reported as “up-regulation of UIIR”.

The IC50 is the midpoint of a concentration-inhibition curve.
